Like-named read-outs stand apart in the source and are kept apart here.
Columns and labels:
[1] = Moisture sorption/desorption (DVS) of Compound I Form A; assay type: physicochemical; details: 25° C.
Experimental: Dynamic vapor sorption/desorption (DVS) data were collected on a VTI SGA-100 Vapor Sorption Analyzer. NaCl and PVP were used as calibration standards. Samples were not dried prior to analysis. Adsorption and desorption data were collected over a range from 5 to 95% RH at 10% RH increments under a nitrogen purge. The equilibrium criterion used for analysis was less than 0.0100% weight change in 5 minutes with a maximum equilibration time of 3 hours. Data were not corrected for the initial moisture content of the samples. Moisture sorption/desorption data were collected for the sample on a VTI […] Vapor Sorption Analyzer. NaCl and PVP were used as calibration standards. Samples were vacuum dried prior to analysis. Sorption and desorption data were collected over a range from 5 to 95% RH at 10% RH increments under a nitrogen purge. The equilibrium criterion used for analysis was less than 0.0100% weight change in 5 minutes with a maximum equilibration time of 3 hours. Data were not corrected for the initial moisture content of the samples. FIG. 15 illustrates the graphed Weight % vs. Relative Humidity.

[2] = PK study of Form A of Compound I in rats; assay type: in vivo; details: male, Sprague-Dawley, rat, plasma, po, 75 mg/kg, single PO dose of 75 mg/kg, male SD rats
Experimental: The pharmacokinetics (PK) properties of Form A of Compound I and Form I of Compound II were determined in a series of comprehensive experiments in preclinical species including Sprague-Dawley rats, beagle dogs, cynomolgus monkeys. In those studies, the Form A crystalline salt of Compound I (and Form I crystalline salt of Compound II) was formulated in saline, 0.5% MC in saline or other commonly used suitable formulation vehicles to give a clear solution or as a suspension or a paste depending on the concentration intended to reach and the choice of vehicles. Dosing was by oral gavage. Blood samples were drawn and placed into individual tube containing K2EDTA. Blood samples were put on ice and centrifuged (2000 g for 5 minutes at 4° C.) to obtain plasma within 15 minutes after collection. Plasma samples were stored at approximately −80° C. freezer until analysis. For most of these analyses, Compound I (and Compound II) and the internal standard (IS) were extracted from rat, monkey or dog plasma by protein precipitation, and the extract was evaporated, reconstituted and analyzed using HPLC with tandem mass spectrometric detection (HPLC-MS/MS), see examples for further details. Calibration was accomplished by weighted linear regression of the ratio of the peak area of analyte to that of the added internal standard (IS). For the validated assay in rat and monkey EDTA plasma, the Lower Limit of Quantitation (LLOQ) for both compound 1 and 2 was 5.00 ng/mL, and the assay was linear from 5.00-1,000 ng/mL. PK parameters were calculated by non-compartmental analysis using WinNonlin (versions 4.1 through 6.1). 1) Weighed 922.80 mg of Form A of Compound I (equivalent to 824.603 mg of free base) into a clean tube. 2) Added 54.974 mL of 0.5% methylcellulose in saline into the tube containing the Form A of Compound I, vortexed for 3-5 min and sonicated for 10-15 min. The dosing solution was a light yellow and clear solution. Sprague Dawley rats, ˜7-9 weeks old and weighing ˜210-270 g, were given the above dosing solution at 5 mL/kg. […] Sample Preparation for Analysis: An aliquot of 30 μL of plasma sample was mixed with 30 μL of the IS (200 ng/mL), then mixed with 150 μL ACN for protein precipitation. The mixture was vortexed for 2 min and centrifuged at 12000 rpm for 5 min. An aliquot of 1 μL of supernatant was injected onto HPLC-MS/MS, if no further dilution was needed. To prepare a 10-fold diluted plasma samples, an aliquot of 10 μL plasma sample was mixed with 90 μL blank plasma to obtain the diluted plasma samples. The extraction procedure for diluted samples was as the same as that used for the non-diluted samples. • Compound Concentration Quantitation: • Instrument HPLC-MS/MS-12 (API4000), on positive ionization mode, ESI+ • HPLC Conditions Mobile Phase A: H2O—0.025% formic acid (FA)—1 mM NH4OAc • Mobile Phase B: MeOH—0.025% FA—1 mM NH4OAc Pharmacokinetic analysis was done using the WinNonlin software (Version 5.3, Pharsight Corporation, California, USA). Any concentration data under LLOQ (LLOQ=1.00 ng/mL in rat plasma and 3.00 ng/mL in rat liver homogenate) were replaced with “BQL”.

[3] = with respect to the initial sample weight
[4] = Mean (N = 3), read-out: mean plasma concentration
[5] = Rat #1, read-out: plasma concentration
[6] = Rat #2, read-out: plasma concentration
[7] = Rat #3, read-out: plasma concentration

With `COC(=O)N[C@H](C(=O)N1CCC[C@H]1c1ncc(-c2ccc3cc(-c4ccc5nc([C@@H]6CCCN6C(=O)[C@@H](NC(=O)OC)C(C)C)[nH]c5c4)ccc3c2)[nH]1)C(C)C` [Form A of Compound I] the Weight % chg ([1]; desorption, Samp RH 5.17 %) was 0.673%, the Weight % chg ([1]; desorption, Samp RH 14.73 %) was 2.010% and the Weight % chg ([1]; desorption, Samp RH 25.12 %) was 3.025%. For the same compound, the Weight % chg ([1]; desorption, Samp RH 35.13 %) was 3.870%, the Weight % chg ([1]; desorption, Samp RH 44.99 %) was 4.590% and the Weight % chg ([1]; desorption, Samp RH 55.17 %) was 5.352%. For the same compound, the Weight % chg ([1]; desorption, Samp RH 65.08 %) was 5.993%, the Weight % chg ([1]; desorption, Samp RH 75.27 %) was 6.741% and the Weight % chg ([1]; desorption, Samp RH 85.24 %) was 7.855%. The Weight % chg ([1]; sorption, Samp RH 5.09 %) was −0.187%, the Weight % chg ([1]; sorption, Samp RH 14.73 %) was 0.065% and the Weight % chg ([1]; sorption, Samp RH 24.93 %) was 0.303%. For the same compound, the Weight % chg ([1]; sorption, Samp RH 34.87 %) was 0.521%, the Weight % chg ([1]; sorption, Samp RH 44.91 %) was 0.780% and the Weight % chg ([1]; sorption, Samp RH 54.80 %) was 1.082%. For the same compound, the Weight % chg ([1]; sorption, Samp RH 64.95 %) was 1.458%, the Weight % chg ([1]; sorption, Samp RH 74.71 %) was 1.868% and the Weight % chg ([1]; sorption, Samp RH 84.57 %) was 2.502%. The Weight % chg ([1]; sorption, Samp RH 94.86 %) was 10.824%, the “% wt change upon equilibration at 5% RH” value [1, 3] was −0.187 % wt and the “% wt gain from 5%-85% RH” value [1, 3] was 2.689 % wt. For the same compound, the “% wt gain from 85%-95% RH” value [1, 3] was 8.322 % wt, the “% wt lost from 95%-5% RH” value [1, 3] was 10.151 % wt and the concentration at 1 h [2, 4] was 5970 ng/mL. The concentration at 1 h [2, 5] was 6210 ng/mL, the concentration at 1 h [2, 6] was 5480 ng/mL and the concentration at 1 h [2, 7] was 6230 ng/mL. The concentration at 2 h [2, 4] was 7430 ng/mL, the concentration at 2 h [2, 5] was 8030 ng/mL and the concentration at 2 h [2, 6] was 7890 ng/mL. For the same compound, the concentration at 2 h [2, 7] was 6380 ng/mL, the concentration at 3 h [2, 4] was 8340 ng/mL and the concentration at 3 h [2, 5] was 5670 ng/mL. The concentration at 3 h [2, 6] was 8060 ng/mL, the concentration at 3 h [2, 7] was 11300 ng/mL and the concentration at 4 h [2, 4] was 3930 ng/mL. It also gave a concentration at 4 h [2, 5] of 3680 ng/mL, a concentration at 4 h [2, 6] of 5170 ng/mL and a concentration at 4 h [2, 7] of 2930 ng/mL. For the same compound, the concentration at 6 h [2, 4] was 2850 ng/mL, the concentration at 6 h [2, 5] was 2780 ng/mL and the concentration at 6 h [2, 6] was 3370 ng/mL. It also gave a concentration at 6 h [2, 7] of 2400 ng/mL, a concentration at 8 h [2, 4] of 531 ng/mL and a concentration at 8 h [2, 5] of 498 ng/mL. For the same compound, the concentration at 8 h [2, 6] was 704 ng/mL, the concentration at 8 h [2, 7] was 390 ng/mL and the concentration at 12 h [2, 4] was 176 ng/mL. For the same compound, the concentration at 12 h [2, 5] was 188 ng/mL, the concentration at 12 h [2, 6] was 277 ng/mL and the concentration at 12 h [2, 7] was 63.6 ng/mL. It also gave a concentration at 24 h [2, 4] of 8.07 ng/mL, a concentration at 24 h [2, 5] of 8.12 ng/mL and a concentration at 24 h [2, 6] of 7.95 ng/mL. For the same compound, the concentration at 24 h [2, 7] was 8.15 ng/mL.

From patent publication US20150203474A1, “SOLID FORMS COMPRISING INHIBITORS OF HCV NS5A, COMPOSITIONS THEREOF, AND USES THEREWITH” (PRESIDIO PHARMACEUTICALS ,INC., priority 2012, published 2015)
